pIC50: −log10 of the molar value.
Test system: human keratinocytes
Experiment: Neutral red incorporation test: cytotoxicity of cadmium chloride on human keratinocytes in culture, with or without protecting agent
Format: cell-based
Conditions: for protection of cells against the toxicity of cadmium chloride (in words): protecting agent at 50 and 100 μM
Method: The cytotoxic effect of cadmium on human keratinocytes in culture was evaluated by means of a technique of measuring the cell viability, known as the neutral red incorporation test (E. Borenfreund and J. A. Puerner, Tissue Culture Methods. 1984, 9: 7-9).
The study was performed on a monolayer culture of human keratinocytes obtained from plastic surgeries. The cells are inoculated on D-3 into 96-well culture dishes at a rate of 25 000 cells/cm^2 in 100 μl of culture medium (calf serum-free defined medium, NR2, Biofluids). The incubations are performed in an incubator at 37° C. under a humid atmosphere enriched with 5% CO2.
The cells are treated for 24 hours with increasing concentrations (0, 10, 25, 50, 75, 100, 150 and 200 μM) of cadmium chloride (CdCl2) alone, so as to determine its cytotoxicity. In parallel, a treatment is performed under the same conditions, but in the presence of N,N′-bis(3,4,5-trimethoxybenzyl)ethylenediamine-N,N′-diacetic acid (100 and 50 μm). The incubations are performed in an incubator at 37° C., [lacuna] % CO2 under a humid atmosphere.
At the end of the period of contact, a neutral red incorporation test is performed and the results are read on a spectrophotometer at 550 nm.
To do this, the cells are rinsed with PBS buffer in order to remove the treatment solutions; 100 μl per well of a 0.5 mg/ml neutral red solution are added to the culture medium; the mixture is incubated at 37° C. and 5% CO2, under a humid atmosphere, for three hours; the resulting mixture is rinsed with PBS; fixing is performed with formaldehyde/calcium solution for one minute; the neutral red is extracted with 100 μl/well of ethanol-acetic acid solution; the optical density is read on the spectrophotometer at 550 nm and the CdCl2 concentration, resulting in a 50% reduction in viability=IC-50, is calculated.

| SMILES | pIC50 (CdCl2 alone, 24 hours, human keratinocytes, neutral red, concentration giving 50% drop in cell viability, read-out: IC.50 of cadmium chloride without protecting agent (Mean ± SEM)) | protection of cells against the toxicity of cadmium chloride (in words) (human keratinocytes) | protection of cells against the toxicity of cadmium chloride (in words) (human keratinocytes, listed as N,N′-dimethylethylenediamine-N,N′-diacetic acid) | factor by which the cytotoxicity of cadmium chloride decreases (protecting agent at 50 μM) | factor by which the cytotoxicity of cadmium chloride decreases (protecting agent at 100 μM) |
| --- | --- | --- | --- | --- | --- |
| [Cl][Cd][Cl] [cadmium chloride, reference compound] | 4.41 |  |  |  |  |
| COc1cc(CN(CCN(CC(=O)O)Cc2cc(OC)c(OC)c(OC)c2)CC(=O)O)cc(OC)c1OC [N,N′-bis(3,4,5-trimethoxybenzyl)ethylenediamine-N,N′-diacetic acid] |  | significantly protects the cells against the toxicity of this pollutant | cytotoxicity of cadmium chloride decreases significantly | 2.3 | 3.1 |
